IC50 data for 29 compounds are collected here from patent publication US20260365671A1, “HETEROCYCLIC COMPOUND” (Takeda Pharmaceutical Company Limited, priority 2022, published 2026).

The subject of one test is NF-κB pathway. The test can be described thus: TNF-α assay (THP-1 cells differentiated to macrophages with IFN-γ, NF-κB pathway activated with LPS; ELISA). It is filed as cell-based, Human. Conditions: Homo sapiens, THP-1, THP-1 macrophages, compound 30 min, 50 ng/mL LPS 3 hours. The essentials:
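TNF-α release measured by ELISA after 3 h stimulation with 50 ng/mL LPS, following 30 min compound pretreatment (37 °C, no FBS). Cells were THP-1 macrophages primed with IFN-γ 25 ng/mL for 24 h. IC50 derived by logistic curve fit.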
For orientation: An ELISA detects its analyte on a solid surface through an enzyme-linked reagent.

The next test deals with T1, NLRP3 inflammasome (Homo sapiens, UniProt Q96P20).
T1 construct: IL-1beta HTRF
T1 sequence (Q96P20 whole entry): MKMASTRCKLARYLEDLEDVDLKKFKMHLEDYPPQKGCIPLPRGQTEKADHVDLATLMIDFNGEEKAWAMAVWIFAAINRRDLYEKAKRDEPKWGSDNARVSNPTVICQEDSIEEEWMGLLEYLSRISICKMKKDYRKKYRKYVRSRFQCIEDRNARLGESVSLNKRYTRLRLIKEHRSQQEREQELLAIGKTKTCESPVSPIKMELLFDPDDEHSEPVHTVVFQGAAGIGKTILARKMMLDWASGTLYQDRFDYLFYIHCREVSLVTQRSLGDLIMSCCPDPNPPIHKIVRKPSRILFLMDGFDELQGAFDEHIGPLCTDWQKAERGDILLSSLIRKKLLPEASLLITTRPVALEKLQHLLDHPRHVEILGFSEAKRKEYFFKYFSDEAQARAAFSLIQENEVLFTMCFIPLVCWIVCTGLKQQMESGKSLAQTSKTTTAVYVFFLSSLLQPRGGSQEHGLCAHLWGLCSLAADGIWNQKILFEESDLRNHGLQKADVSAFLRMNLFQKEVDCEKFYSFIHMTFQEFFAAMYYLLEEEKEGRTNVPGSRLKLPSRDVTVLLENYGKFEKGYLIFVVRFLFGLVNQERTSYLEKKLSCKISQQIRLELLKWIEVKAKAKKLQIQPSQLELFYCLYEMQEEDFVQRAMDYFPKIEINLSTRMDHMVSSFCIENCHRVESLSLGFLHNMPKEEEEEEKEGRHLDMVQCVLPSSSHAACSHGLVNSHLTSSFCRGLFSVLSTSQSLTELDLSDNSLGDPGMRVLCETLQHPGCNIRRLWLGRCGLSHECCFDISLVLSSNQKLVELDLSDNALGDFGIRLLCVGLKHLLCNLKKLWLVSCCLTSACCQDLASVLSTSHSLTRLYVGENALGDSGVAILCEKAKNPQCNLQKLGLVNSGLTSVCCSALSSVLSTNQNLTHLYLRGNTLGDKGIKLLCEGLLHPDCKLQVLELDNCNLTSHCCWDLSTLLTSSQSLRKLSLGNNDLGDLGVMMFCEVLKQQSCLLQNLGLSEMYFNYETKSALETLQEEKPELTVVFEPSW
The experiment in a line: IL-1β TR-FRET assay (THP-1 cells differentiated to macrophages with IFN-γ, LPS primed, ATP activated; HTRF). Type of test: cell-based. The settings on record: THP-1 macrophages, 50 ng/mL LPS priming, compound 30 min, 20 mM ATP 2 hours. The essentials: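 IL-1β release was read by HTRF after 16–24 h antibody incubation at room temperature, using supernatants from THP-1-derived macrophages (IFN-γ 25 ng/mL, LPS 50 ng/mL priming) given compound 30 min and then 20 mM ATP for 2 h. % inhibition versus concentration was fitted logistically for IC50.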

Consider `Cc1cc(C)c(-n2cc3sc(NC4CCCN(C)C4=O)nc3n2)c(O)c1` (stereo not shown) [Example 118, 3-{[2-(2-hydroxy-4,6-dimethylphenyl)-2H-pyrazolo[3,4-d][1,3]thiazol-5-yl]amino}-1-methylpiperidin-2-one], for which the IC50 (as a rule, the concentration that inhibits the measured activity by half) in the test on NF-κB pathway is above 30 µM; against NLRP3 inflammasome, 0.78 µM.
For the compound `CO[C@H](C)CNc1nc2nn(-c3c(C)cc(C)cc3O)cc2s1` [Example 120, 2-(5-{[(2R)-2-methoxypropyl]amino}-2H-pyrazolo[3,4-d][1,3]thiazol-2-yl)-3,5-dimethylphenol], the 50% inhibitory concentration (IC50) in the test with NF-κB pathway is above 30 µM; on NLRP3 inflammasome, 0.72 µM.
For the compound `Cc1cc(C)c(-n2cc3sc(NC4CCN(S(C)(=O)=O)CC4)nc3n2)c(O)c1` [Example 128, 2-(5-{[1-(methanesulfonyl)piperidin-4-yl]amino}-2H-pyrazolo[3,4-d][1,3]thiazol-2-yl)-3,5-dimethylphenol], the figures for the half-inhibitory concentration (IC50) in the test with NF-κB pathway and against NLRP3 inflammasome were above 30 µM and 1.2 µM, respectively.
For the compound `Cc1cc(C)c(-n2cc3sc(NC4CCN(CC(F)F)CC4)nc3n2)c(O)c1` [Example 129, 2-(5-{[1-(2,2-difluoroethyl)piperidin-4-yl]amino}-2H-pyrazolo[3,4-d][1,3]thiazol-2-yl)-3,5-dimethylphenol], the IC50 with NF-κB pathway was above 10 µM; on NLRP3 inflammasome, 2.3 µM.
For `COC(=O)N1CCC(Nc2nc3nn(-c4c(C)cc(C)cc4O)cc3s2)CC1` [Example 130, methyl 4-{[2-(2-hydroxy-4,6-dimethylphenyl)-2H-pyrazolo[3,4-d][1,3]thiazol-5-yl]amino}piperidine-1-carboxylate] the same measures were above 30 µM and 1.1 µM.
With `CNC(=O)N1CCC(Nc2nc3nn(-c4c(C)cc(C)cc4O)cc3s2)CC1` [Example 131, 4-{[2-(2-hydroxy-4,6-dimethylphenyl)-2H-pyrazolo[3,4-d][1,3]thiazol-5-yl]amino}-N-methylpiperidine-1-carboxamide], the IC50 with NF-κB pathway is above 30 µM; against NLRP3 inflammasome, 0.58 µM.
With `CCC(=O)N1CCC(Nc2nc3nn(-c4c(C)cc(C)cc4O)cc3s2)CC1` [Example 132, 1-(4-{[2-(2-hydroxy-4,6-dimethylphenyl)-2H-pyrazolo[3,4-d][1,3]thiazol-5-yl]amino}piperidin-1-yl)propan-1-one], the half-maximal inhibitory concentration (IC50) with NF-κB pathway was above 30 µM; against NLRP3 inflammasome, 1 µM.
Consider `CC(=O)N1CCC(Nc2nc3nn(-c4c(C)cc(C)cc4O)cc3s2)CC1` [Example 133, 1-(4-{[2-(2-hydroxy-4,6-dimethylphenyl)-2H-pyrazolo[3,4-d][1,3]thiazol-5-yl]amino}piperidin-1-yl)ethan-1-one], for which the figures for the half-maximal inhibitory concentration (IC50) in the test with NF-κB pathway and against NLRP3 inflammasome were above 30 µM and 0.88 µM, respectively.
For `COc1cc(C)c(-n2cc3sc(N[C@@H]4CN(C)C[C@H]4F)nc3n2)c(O)c1` [Example 134, 2-(5-{[(3R,4R)-4-fluoro-1-methylpyrrolidin-3-yl]amino}-2H-pyrazolo[3,4-d][1,3]thiazol-2-yl)-5-methoxy-3-methylphenol], the IC50 in the test with NF-κB pathway is above 10 µM; against NLRP3 inflammasome, 1.5 µM.
Consider `COc1cc(C)c(-n2cc3sc(N[C@H]4CN(C)C[C@@H]4F)nc3n2)c(O)c1` [Example 135, 2-(5-{[(3S,4S)-4-fluoro-1-methylpyrrolidin-3-yl]amino}-2H-pyrazolo[3,4-d][1,3]thiazol-2-yl)-5-methoxy-3-methylphenol], for which the half-inhibitory concentration (IC50) in the test on NF-κB pathway was above 10 µM; on NLRP3 inflammasome, 0.09 µM.
As for `Cc1cc(C)c(-n2cc3sc(N[C@H]4CCN(C)C(=O)C4)nc3n2)c(O)c1` [Example 136, (4S)-4-{[2-(2-hydroxy-4,6-dimethylphenyl)-2H-pyrazolo[3,4-d][1,3]thiazol-5-yl]amino}-1-methylpiperidin-2-one], the IC50 in the test on NF-κB pathway was above 30 µM; on NLRP3 inflammasome it was 3.3 µM.
Turning to `Cc1cc(C)c(-n2cc3sc(N[C@@H]4CCN(C)C(=O)C4)nc3n2)c(O)c1` [Example 137, (4R)-4-{[2-(2-hydroxy-4,6-dimethylphenyl)-2H-pyrazolo[3,4-d][1,3]thiazol-5-yl]amino}-1-methylpiperidin-2-one], the results for the half-inhibitory concentration (IC50) with NF-κB pathway and against NLRP3 inflammasome were above 30 µM and 1.1 µM, respectively.
For the compound `Cc1cc(C)c(-n2cc3sc(NCC4(F)CCC4)nc3n2)c(O)c1` [Example 138, 2-(5-{[(1-fluorocyclobutyl)methyl]amino}-2H-pyrazolo[3,4-d][1,3]thiazol-2-yl)-3,5-dimethylphenol], the IC50 is above 10 µM with NF-κB pathway and 0.6 µM at NLRP3 inflammasome.
Regarding `Cc1cc(C)c(-n2cc3sc(NCC(C)(F)F)nc3n2)c(O)c1` [Example 139, 2-{5-[(2,2-difluoropropyl)amino]-2H-pyrazolo[3,4-d][1,3]thiazol-2-yl}-3,5-dimethylphenol], the IC50 in the test on NF-κB pathway is above 10 µM; against NLRP3 inflammasome, 0.28 µM.
With `Cc1cc(C)c(-n2cc3sc(NC(C)C(C)O)nc3n2)c(O)c1` (stereo not shown) [Example 140, 2-{5-[(3-hydroxybutan-2-yl)amino]-2H-pyrazolo[3,4-d] [1,3]thiazol-2-yl}-3,5-dimethylphenol], the half-inhibitory concentration (IC50) with NF-κB pathway is above 30 µM; at NLRP3 inflammasome, 0.4 µM.
For `Cc1cc(O)c(-n2cc3sc(NC[C@@H](C)O)nc3n2)c(C2CC2(F)F)c1` (stereo partly drawn) [Example 141, 3-(2,2-difluorocyclopropyl)-2-(5-{[(2R)-2-hydroxypropyl]amino}-2H-pyrazolo[3,4-d][1,3]thiazol-2-yl)-5-methylphenol] the same measures were above 30 µM and 0.059 µM.
As to `Cc1cc(C)c(-n2cc3sc(N[C@H]4COC[C@H]4F)nc3n2)c(O)c1` [Example 144, 2-(5-{[(3R,4R)-4-fluorooxolan-3-yl]amino}-2H-pyrazolo [3,4-d][1,3]thiazol-2-yl)-3,5-dimethylphenol or 2-(5-{[(3S,4S)-4-fluorooxolan-3-yl]amino}-2H-pyrazolo[3,4-d][1,3]thiazol-2-yl)-3,5-dimethylphenol (tR1)], the 50% inhibitory concentration (IC50) is above 30 µM with NF-κB pathway and 0.85 µM at NLRP3 inflammasome.
In the case of `Cc1cc(C)c(-n2cc3sc(NCC(F)F)nc3n2)c(O)c1` [Example 146, 2-{5-[(2,2-difluoroethyl)amino]-2H-pyrazolo[3,4-d][1,3]thiazol-2-yl}-3,5-dimethylphenol], the 50% inhibitory concentration (IC50) with NF-κB pathway was above 30 µM; against NLRP3 inflammasome it was 0.38 µM.
For `Cc1cc(C)c(-n2cc3sc(NC4(C(F)F)CC4)nc3n2)c(O)c1` [Example 147, 2-(5-{[1-(difluoromethyl)cyclopropyl]amino}-2H-pyrazolo[3,4-d][1,3]thiazol-2-yl)-3,5-dimethylphenol] the same measures were above 10 µM and 0.84 µM.
As to `Cc1cc(O)c(-n2cc3sc(NCC(C)(C)O)nc3n2)c(C2CC2(F)F)c1` (stereo not shown) [Example 148], the IC50 in the test with NF-κB pathway was above 30 µM; against NLRP3 inflammasome, 0.13 µM.
Take `Cc1cc(O)c(-n2cc3sc(NC45CCC(O)(CC4)C5)nc3n2)c(C2CC2(F)F)c1` (stereo not shown) [Example 149, 4-({2-[2-(2,2-difluorocyclopropyl)-6-hydroxy-4-methylphenyl]-2H-pyrazolo[3,4-d][1,3]thiazol-5-yl}amino)bicyclo[2.2.1]heptan-1-ol]: the values for the half-maximal inhibitory concentration (IC50) in the test with NF-κB pathway and against NLRP3 inflammasome were above 30 µM and 0.066 µM, respectively.
Take `CCc1cc(C)cc(O)c1-n1cc2sc(NC34CCC(O)(CC3)C4)nc2n1` [Example 150, 4-{[2-(2-ethyl-6-hydroxy-4-methylphenyl)-2H-pyrazolo[3,4-d][1,3]thiazol-5-yl]amino}bicyclo[2.2.1]heptan-1-ol]: the IC50 is above 10 µM in the test with NF-κB pathway and 0.12 µM at NLRP3 inflammasome.
Turning to `Cc1cc(C)c(-n2cc3sc(NC4C5CC6CC4CC(O)(C6)C5)nc3n2)c(O)c1` (stereo not shown) [Example 151, 4-{[2-(2-hydroxy-4,6-dimethylphenyl)-2H-pyrazolo[3,4-d][1,3]thiazol-5-yl]amino} adamantan-1-ol], the 50% inhibitory concentration (IC50) in the test on NF-κB pathway is above 10 µM; against NLRP3 inflammasome it was 6.8 µM.
On to `Cc1cc(C)c(-n2cc3sc(NCC(F)(F)CO)nc3n2)c(O)c1` [Example 152, 2-{5-[(2,2-difluoro-3-hydroxypropyl)amino]-2H-pyrazolo[3,4-d][1,3]thiazol-2-yl}-3,5-dimethylphenol], for which the results for the half-maximal inhibitory concentration (IC50) in the test with NF-κB pathway and on NLRP3 inflammasome were above 30 µM and 0.28 µM, respectively.
The corresponding values for `Cc1cc(C)c(-n2cc3sc(N[C@@H]4CCN(C(=O)OC5CC5)C4)nc3n2)c(O)c1` [Example 153, cyclopropyl (3R)-3-{[2-(2-hydroxy-4,6-dimethylphenyl)-2H-pyrazolo[3,4-d][1,3]thiazol-5-yl]amino}pyrrolidine-1-carboxylate] are above 30 µM and 0.27 µM.
`Cc1cc(C)c(-n2cc3sc(N[C@H]4CCN(C(=O)OC5CC5)C4)nc3n2)c(O)c1` [Example 154, cyclopropyl (3S)-3-{[2-(2-hydroxy-4,6-dimethylphenyl)-2H-pyrazolo[3,4-d][1,3]thiazol-5-yl]amino}pyrrolidine-1-carboxylate]: the figures for the 50% inhibitory concentration (IC50) with NF-κB pathway and at NLRP3 inflammasome were above 30 µM and 1.9 µM, respectively.
With `COC(=O)N1CC[C@@H](Nc2nc3nn(-c4c(C)cc(C)cc4O)cc3s2)C1` [Example 155, methyl (3R)-3-{[2-(2-hydroxy-4,6-dimethylphenyl)-2H-pyrazolo[3,4-d][1,3]thiazol-5-yl]amino}pyrrolidine-1-carboxylate], the half-inhibitory concentration (IC50) is above 30 µM in the test with NF-κB pathway and 0.34 µM against NLRP3 inflammasome.
The corresponding values for `COC(=O)N1CC[C@H](Nc2nc3nn(-c4c(C)cc(C)cc4O)cc3s2)C1` [Example 156, methyl (3S)-3-{[2-(2-hydroxy-4,6-dimethylphenyl)-2H-pyrazolo[3,4-d][1,3]thiazol-5-yl]amino}pyrrolidine-1-carboxylate] are above 10 µM and 2 µM.
Consider `Cc1cc(C)c(-n2cc3sc(N[C@@H]4CCOC4)nc3n2)c(O)c1` [Example 157, 3,5-dimethyl-2-(5-{[(3R)-oxolan-3-yl]amino}-2H-pyrazolo[3,4-d][1,3]thiazol-2-yl)phenol], for which the 50% inhibitory concentration (IC50) in the test on NF-κB pathway is above 30 µM; at NLRP3 inflammasome it was 0.33 µM.
